These results are taken from US9469854B2, “Pharmaceutical composition for treating liver diseases” (Academia Sinica, priority 2014, dated 2016).

One data set has as its system SPEBF2. As to the kind of experiment: qRT-PCR mRNA expression in primary human hepatocytes. The data set is classed as cell-based. The following applies: PHH, 40 μM berberine, 4-8 h. Here is the method: The primary human hepatocytes from Caucasian donors were purchased from Invitrogen and cultured following the manufacturer's instructions. The hepatocytes were thawed and transferred into cryopreserved hepatocytes recovery medium (CM7000, Invitrogen), centrifuging at room temperature, 100×g for 10 min. Then, the hepatocytes were diluted to seeding density with plating medium (CM3000, Invitrogen) and added into collagen I-coated plates (Invitrogen). These plates were incubated at 37° C. for 4-6 hours under 5% CO2 for forming a monolayer. Then, plating medium was replaced by overlay incubation medium (CM4000 and 0.35 mg/mL Geltrex™ Matrix, Invitrogen), and the incubation medium was replaced daily. In the following examples, hepatocytes form 3 to 4 donors were used for experiments.
A 50 mM stock solution of berberine chloride (Sigma-Aldrich) was prepared in dimethyl sulfoxide (DMSO). Cells were treated with 40 μM of berberine chloride or 0.08% DMSO as the control. For induction of lipid droplets formation in cultured cells, 200 μM of oleic acid (Sigma-Aldrich) was added into the culture medium for 24 h.
Total RNA was extracted using a TRIZOL reagent (Invitrogen) according to the manufacturer's protocol. The total RNA quantity was measured using a NanoDrop ND-1000 spectrophotometer (Nanodrop Technologies). […]
(In general: In qPCR the cycle at which signal appears reflects the starting amount.)

Another data set relates to ACACA mRNA. As to the kind of experiment: mRNA stability assay. In kind it is cell-based, human.
The subject of another data set is MAT2A 3′ UTR. Put plainly: Dual luciferase reporter assay in HepG2 cells. The data set is classed as cell-based, human. The method, then:
(§1) Full-length 3′ UTRs of MAT2A and MAT2B were amplified from the genomic DNA of HepG2 cells through PCR.
(§2) The PCR products were then cloned into the pMIR-REPORT Luciferase miRNA Expression Reporter Vector (Invitrogen), and all inserted sequences in the 3′ UTR constructs were checked using the ABI PRISM DNA sequencer.
(§3) The mutagenesis of the target sequences of hsa-miR-21-3p in MAT2A and MAT2B 3′ UTRs was performed using the QuikChange site-directed mutagenesis kit (Agilent) according to the manufacturer's standard protocol.
(§4) All mutated sequences, including Site 1, Site 2 and the double mutation of the MAT2A and the 3′ UTR mutant construct of MAT2B, were checked through DNA sequencing.
(§5) The HEK-293T and HepG2 cells were seeded at a density of 5×10^4 cells per well in a 24-well culture plate the day before transfection. The HEK-293T and HepG2 cells were tri-transfected with (1) any one of the above-mentioned pMIR-REPORT-3′ UTR construction (300 ng), (2) the control Renilla luciferase reporter plasmid pRL-TK from Promega (10 ng), and (3) 50 nM of hsa-miR-21-3p mimic or negative-control mimic by using the Lipofectamine 2000 transfection reagent (Invitrogen) according to the manufacturer's instructions. Luciferase assays were performed after transfection for 48 h by using the Dual Luciferase reporter assay kit (Promega) and the Paradigm detection platform (Beckman) according to the manufacturer's protocol. The firefly luciferase activity was normalized relative to the Renilla luciferase activity.
(In general: Reporter assays use an easily measured gene product as a stand-in for the process of interest.)

A further data set deals with MAT2B 3′ UTR. As to the kind of experiment: Dual luciferase reporter assay in HepG2 cells. The data set is classed as cell-based, human. Here is the method: as §1, §2, §3, §4, §5
Another data set concerns HepG2 cells. As to the kind of experiment: Trypan blue dye exclusion assay (viable cell number). The following applies: HepG2, 50 nM mimic transfection 48 h vs NC mimic. In kind it is cell-based, human. The method, then:
FIG. 6A represents the number of viable HepG2 cells transfected with 50 nM of miR-21-3p mimic or negative-control (NC) mimic for 48 h, which is quantified using trypan blue dye exclusion assay. The data are represented as the mean±standard deviation for 3 independent experiments. The asterisk mark “*” indicates a significant difference with P<0.05.
The HepG2 cells were transfected at a density of 5×10^4 cells per well in a 24-well culture plates with either 50 nM of hsa-miR-21-3p (miR-21-3p mimic) or negative-control mimic (NC mimic), or with either 100 nM of hsa-miR-21-3p inhibitor (miR-21-3p inhibitor) or negative-control inhibitor (NC inhibitor) by using the DharmaFECT 4 transfection reagent (Thermo Scientific Dharmacon) according to the manufacturer's instructions. Cells were incubated for 24 h or 48 h with a microRNA mimic or inhibitor prior to RNA purification for gene expression analysis, and were incubated for 72 h for protein expression analysis.

In the next data set the test system is 3′ UTR of ACACA. As to the kind of experiment: Reporter examination of miR-21-3p and ACACA 3′ UTR (technology similar to Example 6). The following applies: data not shown. In kind it is cell-based, human. The method, then:
as §5

The test system of data set [1] is intracellular malonyl-CoA. Put plainly: Measurement of intracellular malonyl-CoA concentration in PHH cells. In kind it is cell-based, human. To be noted: 72-h mimic transfection. Here is the method: After transfection with 50 nM of miR-21-3p mimic or the negative-control mimic for 72 h, the PHH cells and HepG2 cells were trypsinized. The intracellular malonyl-CoA concentration was measured using the malonyl-CoA ELISA Kit (MyBioSource) according to the manufacturer's instructions.

Where [2] appears, read: HepG2, wild-type 3′ UTR, 50 nM mimic, 48 h.

Consider `COc1ccc2cc3[n+](cc2c1OC)CCc1cc2c(cc1-3)OCO2` [berberine], for which, in the data set with SPEBF2, the “mRNA expression of SPEBF2” value was “decreases”.

Take “hsa-miR-21-3p (CAACACCAGUCGAUGGGCUGU; listed as RNA, chemistry not given here) [miR-21-3p mimic]”: the “half-life of ACACA mRNA” value in the data set with ACACA mRNA is recorded as “reduced the half-life of ACACA mRNA”. Also, the “luciferase reporter expression decrease, Site 1 mutated MAT2A 3′ UTR” value with MAT2A 3′ UTR (HepG2, Site 1 (+180-200) mutated) is 1.5 fold. Moreover, in the data set with MAT2A 3′ UTR (setting [2]), the “luciferase reporter expression decrease, MAT2A 3′ UTR” value turned out to be 1.5 fold. For the same compound, the “luciferase reporter expression change, Site 2 mutated MAT2A 3′ UTR” value in the data set on MAT2A 3′ UTR (Site 2 (+1267-1288) mutated, cells not named in sentence (FIG. 5C: HEK293T and HepG2)) is “did not notably change”. Further, the “luciferase reporter expression change, double-mutated MAT2A 3′ UTR” value in the data set on MAT2A 3′ UTR (both Site 1 and Site 2 mutated, cells not named in sentence (FIG. 5C: HEK293T and HepG2)) is given as “did not notably change”. Besides, in the data set on MAT2B 3′ UTR (HepG2, seed match (+399-418) mutated), the “luciferase reporter expression change, mutated MAT2B 3′ UTR” value is recorded as “remained unchanged”. Also, in the data set with MAT2B 3′ UTR (setting [2]), the “luciferase reporter expression decrease, MAT2B 3′ UTR” value came out at 1.4 fold. Moreover, the viable cell numbers entry in the data set with HepG2 cells is reported as “reduced the viable cell numbers”. Besides, the “suppression of ACACA expression via 3′ UTR” value in the data set with 3′ UTR of ACACA was “suppressed the expression of ACACA, but not though its 3′ UTR sequence”. The “intracellular malonyl-CoA concentration decrease” value in data set [1] is recorded as 2.2 fold.
